Laboratory results from patent publication US20080069785A1, “PEST-CONTROL COMPOSITIONS, AND METHODS AND PRODUCTS UTILIZING SAME” (priority 2004, published 2008).

System: cockroaches (Blattella germanica)
Assay: Weeklong surface area toxicity test on cockroaches (Example 19)
Assay type: in vivo
Experimental: In order determine the toxicity of the formulation to the insect after application to a surface over a period of time, the following test was performed. […] Cockroaches were placed in the cups on the first day following the application of the formulations, on the third day following the application of the formulations, and on the sixth day following the application of the formulations in order to monitor the toxicity of the formulations after a period of time had elapsed. The mortality of the cockroaches was then recorded at the time intervals noted. The five cockroaches placed in each cup were one week old cockroaches (Blattella germanica) which had been reared at twenty seven degrees centigrade, at sixty five percent relative humidity, and on a twelve hour light to dark photoperiod. Each of the cups had Fluon®AD1 treated sides to prevent the escape of the cockroaches.

In the case of `CCCCCCCCCC(C)=O` [Undecanone, 2-Undecanone], the “cockroaches alive (of five per cup)” value (3-4 days treatment, 0.09 μL/cm^2 (5 μL), 23 h) was 5, the “cockroaches alive (of five per cup)” value (3-4 days treatment, 0.09 μL/cm^2 (5 μL), 24 h) was 5 and the “cockroaches alive (of five per cup)” value (3-4 days treatment, 0.09 μL/cm^2 (5 μL), 27 h) was 5. The “cockroaches alive (of five per cup)” value (3-4 days treatment, 0.09 μL/cm^2 (5 μL), 30 h) was 5, the “cockroaches alive (of five per cup)” value (3-4 days treatment, 0.19 μL/cm^2 (10 μL), 5 min) was 5 and the “cockroaches alive (of five per cup)” value (3-4 days treatment, 0.19 μL/cm^2 (10 μL), 10 min) was 5. The “cockroaches alive (of five per cup)” value (3-4 days treatment, 0.19 μL/cm^2 (10 μL), 15 min) was 5, the “cockroaches alive (of five per cup)” value (3-4 days treatment, 0.19 μL/cm^2 (10 μL), 30 min) was 5 and the “cockroaches alive (of five per cup)” value (3-4 days treatment, 0.19 μL/cm^2 (10 μL), 60 min) was 5. The “cockroaches alive (of five per cup)” value (3-4 days treatment, 0.19 μL/cm^2 (10 μL), 90 min) was 5, the “cockroaches alive (of five per cup)” value (3-4 days treatment, 0.19 μL/cm^2 (10 μL), 2 h) was 5 and the “cockroaches alive (of five per cup)” value (3-4 days treatment, 0.19 μL/cm^2 (10 μL), 4 h) was 5. The “cockroaches alive (of five per cup)” value (3-4 days treatment, 0.19 μL/cm^2 (10 μL), 23 h) was 5, the “cockroaches alive (of five per cup)” value (3-4 days treatment, 0.19 μL/cm^2 (10 μL), 24 h) was 5 and the “cockroaches alive (of five per cup)” value (3-4 days treatment, 0.19 μL/cm^2 (10 μL), 27 h) was 5. The “cockroaches alive (of five per cup)” value (3-4 days treatment, 0.19 μL/cm^2 (10 μL), 30 h) was 5, the “cockroaches alive (of five per cup)” value (3-4 days treatment, 0.95 μL/cm^2 (50 μL), 5 min) was 5 and the “cockroaches alive (of five per cup)” value (3-4 days treatment, 0.95 μL/cm^2 (50 μL), 10 min) was 5. For the same compound, the “cockroaches alive (of five per cup)” value (3-4 days treatment, 0.95 μL/cm^2 (50 μL), 15 min) was 5, the “cockroaches alive (of five per cup)” value (3-4 days treatment, 0.95 μL/cm^2 (50 μL), 30 min) was 5 and the “cockroaches alive (of five per cup)” value (3-4 days treatment, 0.95 μL/cm^2 (50 μL), 60 min) was 5. For the same compound, the “cockroaches alive (of five per cup)” value (3-4 days treatment, 0.95 μL/cm^2 (50 μL), 90 min) was 5, the “cockroaches alive (of five per cup)” value (3-4 days treatment, 0.95 μL/cm^2 (50 μL), 2 h) was 3 and the “cockroaches alive (of five per cup)” value (3-4 days treatment, 0.95 μL/cm^2 (50 μL), 4 h) was 2. For the same compound, the “cockroaches alive (of five per cup)” value (3-4 days treatment, 0.95 μL/cm^2 (50 μL), 23 h) was 1, the “cockroaches alive (of five per cup)” value (3-4 days treatment, 0.95 μL/cm^2 (50 μL), 24 h) was 1 and the “cockroaches alive (of five per cup)” value (3-4 days treatment, 0.95 μL/cm^2 (50 μL), 27 h) was 0. The “cockroaches alive (of five per cup)” value (3-4 days treatment, 0.95 μL/cm^2 (50 μL), 30 h) was 0, the “cockroaches alive (of five per cup)” value (6-7 days treatment, 0.02 μL/cm^2 (1 μL), 5 min) was 5 and the “cockroaches alive (of five per cup)” value (6-7 days treatment, 0.02 μL/cm^2 (1 μL), 10 min) was 5. The “cockroaches alive (of five per cup)” value (6-7 days treatment, 0.02 μL/cm^2 (1 μL), 15 min) was 5, the “cockroaches alive (of five per cup)” value (6-7 days treatment, 0.02 μL/cm^2 (1 μL), 30 min) was 5 and the “cockroaches alive (of five per cup)” value (6-7 days treatment, 0.02 μL/cm^2 (1 μL), 60 min) was 5. The “cockroaches alive (of five per cup)” value (6-7 days treatment, 0.02 μL/cm^2 (1 μL), 90 min) was 5, the “cockroaches alive (of five per cup)” value (6-7 days treatment, 0.02 μL/cm^2 (1 μL), 2 h) was 5 and the “cockroaches alive (of five per cup)” value (6-7 days treatment, 0.02 μL/cm^2 (1 μL), 4 h) was 5. For the same compound, the “cockroaches alive (of five per cup)” value (6-7 days treatment, 0.02 μL/cm^2 (1 μL), 21.5 h) was 5, the “cockroaches alive (of five per cup)” value (6-7 days treatment, 0.02 μL/cm^2 (1 μL), 22 h) was 5 and the “cockroaches alive (of five per cup)” value (6-7 days treatment, 0.02 μL/cm^2 (1 μL), 23 h) was 5. For the same compound, the “cockroaches alive (of five per cup)” value (6-7 days treatment, 0.02 μL/cm^2 (1 μL), 24 h) was 5, the “cockroaches alive (of five per cup)” value (6-7 days treatment, 0.02 μL/cm^2 (1 μL), 27 h) was 5 and the “cockroaches alive (of five per cup)” value (6-7 days treatment, 0.02 μL/cm^2 (1 μL), 29 h) was 5. The “cockroaches alive (of five per cup)” value (6-7 days treatment, 0.02 μL/cm^2 (1 μL), 30 h) was 5, the “cockroaches alive (of five per cup)” value (6-7 days treatment, 0.02 μL/cm^2 (1 μL), 31 h) was 5 and the “cockroaches alive (of five per cup)” value (6-7 days treatment, 0.09 μL/cm^2 (5 μL), 5 min) was 5. The “cockroaches alive (of five per cup)” value (6-7 days treatment, 0.09 μL/cm^2 (5 μL), 10 min) was 5, the “cockroaches alive (of five per cup)” value (6-7 days treatment, 0.09 μL/cm^2 (5 μL), 15 min) was 5 and the “cockroaches alive (of five per cup)” value (6-7 days treatment, 0.09 μL/cm^2 (5 μL), 30 min) was 5. For the same compound, the “cockroaches alive (of five per cup)” value (6-7 days treatment, 0.09 μL/cm^2 (5 μL), 60 min) was 5, the “cockroaches alive (of five per cup)” value (6-7 days treatment, 0.09 μL/cm^2 (5 μL), 90 min) was 5 and the “cockroaches alive (of five per cup)” value (6-7 days treatment, 0.09 μL/cm^2 (5 μL), 2 h) was 5. The “cockroaches alive (of five per cup)” value (6-7 days treatment, 0.09 μL/cm^2 (5 μL), 4 h) was 5, the “cockroaches alive (of five per cup)” value (6-7 days treatment, 0.09 μL/cm^2 (5 μL), 21.5 h) was 5 and the “cockroaches alive (of five per cup)” value (6-7 days treatment, 0.09 μL/cm^2 (5 μL), 22 h) was 5. For the same compound, the “cockroaches alive (of five per cup)” value (6-7 days treatment, 0.09 μL/cm^2 (5 μL), 23 h) was 5, the “cockroaches alive (of five per cup)” value (6-7 days treatment, 0.09 μL/cm^2 (5 μL), 24 h) was 5 and the “cockroaches alive (of five per cup)” value (6-7 days treatment, 0.09 μL/cm^2 (5 μL), 27 h) was 5. For the same compound, the “cockroaches alive (of five per cup)” value (6-7 days treatment, 0.09 μL/cm^2 (5 μL), 29 h) was 5, the “cockroaches alive (of five per cup)” value (6-7 days treatment, 0.09 μL/cm^2 (5 μL), 30 h) was 5 and the “cockroaches alive (of five per cup)” value (6-7 days treatment, 0.09 μL/cm^2 (5 μL), 31 h) was 5. The “cockroaches alive (of five per cup)” value (6-7 days treatment, 0.19 μL/cm^2 (10 μL), 5 min) was 5, the “cockroaches alive (of five per cup)” value (6-7 days treatment, 0.19 μL/cm^2 (10 μL), 10 min) was 5 and the “cockroaches alive (of five per cup)” value (6-7 days treatment, 0.19 μL/cm^2 (10 μL), 15 min) was 5. The “cockroaches alive (of five per cup)” value (6-7 days treatment, 0.19 μL/cm^2 (10 μL), 30 min) was 5, the “cockroaches alive (of five per cup)” value (6-7 days treatment, 0.19 μL/cm^2 (10 μL), 60 min) was 5 and the “cockroaches alive (of five per cup)” value (6-7 days treatment, 0.19 μL/cm^2 (10 μL), 90 min) was 5. For the same compound, the “cockroaches alive (of five per cup)” value (6-7 days treatment, 0.19 μL/cm^2 (10 μL), 2 h) was 5, the “cockroaches alive (of five per cup)” value (6-7 days treatment, 0.19 μL/cm^2 (10 μL), 4 h) was 5 and the “cockroaches alive (of five per cup)” value (6-7 days treatment, 0.19 μL/cm^2 (10 μL), 21.5 h) was 5. For the same compound, the “cockroaches alive (of five per cup)” value (6-7 days treatment, 0.19 μL/cm^2 (10 μL), 22 h) was 5, the “cockroaches alive (of five per cup)” value (6-7 days treatment, 0.19 μL/cm^2 (10 μL), 23 h) was 5 and the “cockroaches alive (of five per cup)” value (6-7 days treatment, 0.19 μL/cm^2 (10 μL), 24 h) was 5. For the same compound, the “cockroaches alive (of five per cup)” value (6-7 days treatment, 0.19 μL/cm^2 (10 μL), 27 h) was 5, the “cockroaches alive (of five per cup)” value (6-7 days treatment, 0.19 μL/cm^2 (10 μL), 29 h) was 5 and the “cockroaches alive (of five per cup)” value (6-7 days treatment, 0.19 μL/cm^2 (10 μL), 30 h) was 5. The “cockroaches alive (of five per cup)” value (6-7 days treatment, 0.19 μL/cm^2 (10 μL), 31 h) was 5, the “cockroaches alive (of five per cup)” value (6-7 days treatment, 0.95 μL/cm^2 (50 μL), 21.5 h) was 2 and the “cockroaches alive (of five per cup)” value (6-7 days treatment, 0.95 μL/cm^2 (50 μL), 22 h) was 2. For the same compound, the “cockroaches alive (of five per cup)” value (6-7 days treatment, 0.95 μL/cm^2 (50 μL), 23 h) was 2 and the “cockroaches alive (of five per cup)” value (6-7 days treatment, 0.95 μL/cm^2 (50 μL), 24 h) was 2.
